Laboratory results taken from patent publication US20260102383A1, “LPAR1 Inhibitors” (AbbVie Inc., priority 2024, published 2026).

target: T1, human LPAR1 (Homo sapiens, UniProt Q92633); test: Arrestin assay (Arrestin Reporter EDG2-bla U2OS), inhibition of LPA-stimulated signal; format: cell-based; conditions: TangoEDG2-bla U2OS cells expressing human LPAR1; 0.25 μM LPA; read-out: Arrestin Reporter EDG2-bla U2OS Human Merged IC50
T1 construct: host or cells: TangoEDG2-bla U2OS cells
Summary of the method: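 TangoEDG2-bla U2OS cells (1×10^4/well, plated 18-20 h) were preincubated 1 h at 37 °C with compound (12-point, 3-fold, 10 μM to 0.00006 μM), then stimulated 3 h with 0.25 μM LPA final. LiveBLAzer FRET B/G 460/530 nm emission ratio gave % inhibition; IC50 from 4-parameter variable-slope fit.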

T1 sequence (Q92633 whole entry): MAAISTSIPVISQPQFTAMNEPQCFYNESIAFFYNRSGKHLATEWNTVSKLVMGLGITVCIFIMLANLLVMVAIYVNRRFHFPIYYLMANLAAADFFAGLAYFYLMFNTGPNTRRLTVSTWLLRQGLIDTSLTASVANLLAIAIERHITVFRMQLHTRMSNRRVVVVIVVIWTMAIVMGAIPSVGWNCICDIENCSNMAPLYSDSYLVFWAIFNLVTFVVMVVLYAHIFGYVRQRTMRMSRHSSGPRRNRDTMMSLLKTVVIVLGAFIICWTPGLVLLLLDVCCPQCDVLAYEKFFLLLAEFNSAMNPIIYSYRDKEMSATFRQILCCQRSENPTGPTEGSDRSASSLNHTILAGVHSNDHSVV

Q: CCOC(=O)N1CCC(CN2CCC(C(=O)Nc3ccc(Cl)cc3OC(F)F)(n3ncc(OC)c3C(C)C)CC2)(C(=O)O)CC1 [Compound 99, 4-[[4-[[4-chloro-2-(difluoromethoxy)phenyl]carbamoyl]-4-(5-isopropyl-4-methoxy-pyrazol-1-yl)-1-piperidyl]methyl]-1-ethoxycarbonyl-piperidine-4-carboxylic acid] was tested. Which IC50 did it give?
A: 32.1 nM

Q: How did the IC50 turn out when CCC(=O)N1CC[C@@](CN2CCC(C(=O)Nc3ccc(Cl)cc3OC(F)F)(n3nccc3C(C)C)CC2)(C(=O)O)C1 [Compound 100, (3S)-3-[[4-[[4-chloro-2-(difluoromethoxy)phenyl]carbamoyl]-4-(5-isopropylpyrazol-1-yl)-1-piperidyl]methyl]-1-propanoyl-pyrrolidine-3-carboxylic acid] was run?
A: 78.5 nM

Q: With CCC(=O)N1CC[C@](CN2CCC(C(=O)Nc3ccc(Cl)cc3OC(F)F)(n3nccc3C(C)C)CC2)(C(=O)O)C1 [Compound 101, (3R)-3-[[4-[[4-chloro-2-(difluoromethoxy)phenyl]carbamoyl]-4-(5-isopropylpyrazol-1-yl)-1-piperidyl]methyl]-1-propanoyl-pyrrolidine-3-carboxylic acid] as the compound, how does the IC50 read?
A: 80.9 nM

Q: COCCC(=O)N1CC(CN2CCC(C(=O)Nc3ccc(Cl)cc3OC(F)F)(n3nccc3C(C)C)CC2)(C(=O)O)C1 [Compound 102, 3-[[4-[[4-chloro-2-(difluoromethoxy)phenyl]carbamoyl]-4-(5-isopropylpyrazol-1-yl)-1-piperidyl]methyl]-1-(3-methoxypropanoyl) azetidine-3-carboxylic acid] was tested. Which IC50 did it give?
A: 158 nM

Q: Which IC50 does the source give for CC1(C)COc2cnn(C3(C(=O)Nc4ccc(Cl)cc4OC(F)F)CCN([C@H]4C[C@@H](C(=O)O)C4)CC3)c21 [Compound 103, (1s,3s)-3-[4-[[4-chloro-2-(difluoromethoxy)phenyl]carbamoyl]-4-(6,6-dimethyl-5H-furo[3,2-c]pyrazol-1-yl)-1-piperidyl]cyclobutanecarboxylic acid] here?
A: 164 nM

Q: How did the IC50 turn out when CC1CCc2cnn(C3(C(=O)Nc4ccc(Cl)cc4OC(F)F)CCN([C@H]4C[C@@H](C(=O)O)C4)CC3)c21 (stereo partly shown) [Compound 104, (1s,3s)-3-[4-[[4-chloro-2-(difluoromethoxy)phenyl]carbamoyl]-4-(6-methyl-5,6-dibydro-4H-cyclopenta[c]pyrazol-1-yl)-1-piperidyl] cyclobutanecarboxylic acid] was run?
A: 44.7 nM

Q: With COCC(CN1CCC(C(=O)Nc2ccc(Cl)cc2OC(F)F)(n2nccc2C(C)C)CC1)C(=O)O (stereo not shown) [Compound 105, 2-[[4-[[4-chloro-2-(difluoromethoxy)phenyl]carbamoyl]-4-(5-isopropylpyrazol-1-yl)-1-piperidyl]methyl]-3-methoxy-propanoic acid] as the compound, how does the IC50 read?
A: 26.9 nM

Q: How did the IC50 turn out when CC(C)c1ccnn1C1(C(=O)Nc2ccc(Cl)cc2OC(F)F)CCN([C@H]2C[C@@](C(=O)O)(C(F)(F)F)C2)CC1 [Compound 107, (1s,3s)-3-[4-[[4-chloro-2-(difluoromethoxy)phenyl]carbamoyl]-4-(5-isopropylpyrazol-1-yl)-1-piperidyl]-1-(trifluoromethyl) cyclobutanecarboxylic acid] was run?
A: 40.1 nM

Q: CC(C)c1ccnn1C1(C(=O)Nc2ccc(Cl)cc2OC(F)F)CCN([C@H]2C[C@](C(=O)O)(C(F)(F)F)C2)CC1 [Compound 108, (1r,3r)-3-[4-[[4-chloro-2-(difluoromethoxy)phenyl]carbamoyl]-4-(5-isopropylpyrazol-1-yl)-1-piperidyl]-1-(trifluoromethyl)cyclobutanecarboxylic acid] was tested. Which IC50 did it give?
A: 55.8 nM

Q: For CC(C)c1ccnn1C1(C(=O)Nc2ccc(Cl)cc2OC(F)F)CCN(CC2(C(=O)O)CCN(C(=O)O[C@H]3CCOC3)CC2)CC1 [Compound 109], which IC50 is on record?
A: 94.9 nM

Q: CC(C)c1ccnn1C1(C(=O)Nc2ccc(Cl)cc2OC(F)F)CCN(CC2(C(=O)O)CCN(C(=O)O[C@@H]3CCOC3)CC2)CC1 [Compound 110, 4-[[4-[[4-chloro-2-(difluoromethoxy)phenyl]carbamoyl]-4-(5-isopropylpyrazol-1-yl)-1-piperidyl]methyl]-1-[(3R)-tetrahydrofuran-3-yl]oxycarbonyl-piperidine-4-carboxylic acid] was tested. Which IC50 did it give?
A: 75.5 nM

Q: With CC(C)c1ccnn1C1(C(=O)Nc2ccc(Cl)cc2OC(F)F)CCN([C@H]2C[C@](C#N)(C(=O)O)C2)CC1 [Compound 111, (1r,3r)-3-[4-[[4-chloro-2-(difluoromethoxy)phenyl]carbamoyl]-4-(5-isopropylpyrazol-1-yl)-1-piperidyl]-1-cyano-cyclobutanecarboxylic acid] as the compound, how does the IC50 read?
A: 221 nM

Q: How did the IC50 turn out when CC(C)c1ccnn1C1(C(=O)Nc2ccc(Cl)cc2OC(F)F)CCN([C@H]2C[C@@](C#N)(C(=O)O)C2)CC1 [Compound 112, (1s,3s)-3-[4-[[4-chloro-2-(difluoromethoxy)phenyl]carbamoyl]-4-(5-isopropylpyrazol-1-yl)-1-piperidyl]-1-cyano-cyclobutanecarboxylic acid] was run?
A: 309 nM

Q: CC(C)c1ccnn1C1(C(=O)Nc2ccc(Cl)cc2OC(F)F)CCN(C2COC(C(=O)O)C2)CC1 (stereo not shown) [Compound 113, 4-[4-[[4-chloro-2-(difluoromethoxy)phenyl]carbamoyl]-4-(5-isopropylpyrazol-1-yl)-1-piperidyl]tetrahydrofuran-2-carboxylic acid] was tested. Which IC50 did it give?
A: 141 nM

Q: CC1(C)CCc2cnn(C3(C(=O)Nc4ccc(Cl)cc4OC(F)F)CCN(C[C@@H]4CC[C@H]4C(=O)O)CC3)c21 [Compound 115, (1R.2R)-2-[[4-[[4-chloro-2-(difluoromethoxy)phenyl]carbamoyl]-4-(6,6-dimethyl-4,5-dibydrocyclopenta[c]pyrazol-1-yl)-1-piperidyl]methyl] cyclobutanecarboxylic acid] was tested. Which IC50 did it give?
A: 82.5 nM

Q: Which IC50 does the source give for CC(C)c1ccnn1C1(C(=O)Nc2ccc(Cl)cc2OC(F)F)CCN(CC(C(=O)O)N2CCOCC2)CC1 (stereo not shown) [Compound 116, 3-[4-[[4-chloro-2-(difluoromethoxy)phenyl]carbamoyl]-4-(5-isopropylpyrazol-1-yl)-1-piperidyl]-2-morpholino-propanoic acid] here?
A: 129 nM

Q: C=C(CN1CCC(C(=O)Nc2ccc(Cl)cc2OC(F)F)(n2nccc2C(C)C)CC1)C(C)(C)C(=O)O [Compound 117, 3-[[4-[[4-chloro-2-(difluoromethoxy)phenyl]carbamoyl]-4-(5-isopropylpyrazol-1-yl)-1-piperidyl]methyl]-2,2-dimethyl-but-3-enoic acid] was tested. Which IC50 did it give?
A: 49 nM

Q: Which IC50 does the source give for COC[C@H](CN1CCC(C(=O)Nc2ccc(Cl)cc2OC(F)F)(n2nccc2C(C)C)CC1)C(=O)O [Compound 118, (2S)-2-[[4-[[4-chloro-2-(difluoromethoxy)phenyl]carbamoyl]-4-(5-isopropylpyrazol-1-yl)-1-piperidyl]methyl]-3-methoxy-propanoic acid] here?
A: 20.8 nM

Q: Which IC50 does the source give for CC(C)c1ccnn1C1(C(=O)Nc2ccc(Cl)cc2OC(F)F)CCN(CC(CO)C(=O)O)CC1 (stereo not shown) [Compound 120, 2-[[4-[[4-chloro-2-(difluoromethoxy)phenyl]carbamoyl]-4-(5-isopropylpyrazol-1-yl)-1-piperidyl]methyl]-3-hydroxy-propanoic acid] here?
A: 34.7 nM

Q: For CC(C)c1ccnn1C1(C(=O)Nc2ccc(Cl)cc2OC(F)F)CCN(C2CC(O)(C(=O)O)C2)CC1 (stereo not shown) [Compound 121, 3-[4-[[4-chloro-2-(difluoromethoxy)phenyl]carbamoyl]-4-(5-isopropylpyrazol-1-yl)-1-piperidyl]-1-hydroxy-cyclobutanecarboxylic acid], which IC50 is on record?
A: 48.8 nM

Q: Which IC50 does the source give for CC[C@H](CN1CCC(C(=O)Nc2ccc(Cl)cc2OC(F)F)(n2nccc2C(C)C)CC1)C(=O)O [Compound 122, (2R)-2-[[4-[[4-chloro-2-(difluoromethoxy)phenyl]carbamoyl]-4-(5-isopropylpyrazol-1-yl)-1-piperidyl]methyl]butanoic acid] here?
A: 23.9 nM

Q: For CC(C)c1ccnn1C1(C(=O)Nc2ccc(Cl)cc2OC(F)F)CCN(C2CC(NC(=O)OC(C)(C)C)(C(=O)O)C2)CC1 (stereo not shown) [Compound 124, 1-(tert-butoxycarbonylamino)-3-[4-[[4-chloro-2-(difluoromethoxy)phenyl]carbamoyl]-4-(5-isopropylpyrazol-1-yl)-1-piperidyl] cyclobutanecarboxylic acid], which IC50 is on record?
A: 49.3 nM

Q: CC(C)c1ccnn1C1(C(=O)Nc2ccc(Cl)cc2OC(F)F)CCN(CC(CN2CCOCC2)C(=O)O)CC1 (stereo not shown) [Compound 125, 2-[[4-[[4-chloro-2-(difluoromethoxy)phenyl]carbamoyl]-4-(5-isopropylpyrazol-1-yl)-1-piperidyl]methyl]-3-morpholino-propanoic acid] was tested. Which IC50 did it give?
A: 113 nM

Q: For CC[C@@H](CN1CCC(C(=O)Nc2ccc(Cl)cc2OC(F)F)(n2nccc2C(C)C)CC1)C(=O)O [Compound 126, (2S)-2-[[4-[[4-chloro-2-(difluoromethoxy)phenyl]carbamoyl]-4-(5-isopropylpyrazol-1-yl)-1-piperidyl]methyl] butanoic acid], which IC50 is on record?
A: 22.1 nM

Q: CC(C)c1ccnn1C1(C(=O)Nc2ccc(Cl)cc2OC(F)F)CCN([C@H]2C[C@@]3(C[C@@H]3C(=O)O)C2)CC1 [Compound 127, (1S,3r,5R)-5-[4-[[4-chloro-2-(difluoromethoxy)phenyl]carbamoyl]-4-(5-isopropylpyrazol-1-yl)-1-piperidyl]spiro[2.3] hexane-2-carboxylic acid] was tested. Which IC50 did it give?
A: 31.9 nM

Q: With CC(C)c1ccnn1C1(C(=O)Nc2ccc(Cl)cc2OC(F)F)CCN(C2(CC(=O)O)CCOCC2)CC1 [Compound 128, 2-[4-[4-[[4-chloro-2-(difluoromethoxy)phenyl]carbamoyl]-4-(5-isopropylpyrazol-1-yl)-1-piperidyl]tetrahydropyran-4-yl]acetic acid] as the compound, how does the IC50 read?
A: 56 nM

Q: With CC(C)c1ccnn1C1(C(=O)Nc2ccc(Cl)cc2OC(F)F)CCN(CC(Cn2cccn2)C(=O)O)CC1 (stereo not shown) [Compound 129, 2-[[4-[[4-chloro-2-(difluoromethoxy)phenyl]carbamoyl]-4-(5-isopropylpyrazol-1-yl)-1-piperidyl]methyl]-3-pyrazol-1-yl-propanoic acid] as the compound, how does the IC50 read?
A: 34.7 nM

Q: CC(C)c1ccnn1C1(C(=O)Nc2ccc(Cl)cc2OC(F)F)CCN(C[C@@H](C)C(C)(C)C(=O)O)CC1 [Compound 130] was tested. Which IC50 did it give?
A: 45.7 nM
